US10858335B2 (Rigel Pharmaceuticals, Inc., priority 2014, dated 2020)

These compounds were tested on GDF8 signaling (p-SMAD-3 (Ser423/425)) (assay: AlphaScreen SureFire SMAD3 (p-Ser423/425) assay, GDF8-stimulated cells (GDF pSMAD)). Settings: Mus musculus, MPC-11, MPC11; GDF8-stimulated; p-SMAD3 AlphaScreen; read-out: GDF pSMAD (MPC11) (inhibition of GDF8 signaling).
Format: cell-based

IC50 | Structure (SMILES)
1200 nM | Nc1ncnc2ccc(-c3cccnc3-c3cccc(Cl)c3Cl)cc12 [compound 498, 6-(2-(2,3-Dichlorophenyl)pyridin-3-yl)quinazolin-4-amine]
6520 nM | Nc1ncnc2ccc(-c3cccnc3-c3ccc(F)cc3Cl)cc12 [compound 499, 6-(2-(2-Chloro-4-fluorophenyl)pyridin-3-yl)quinazolin-4-amine]
563 nM | COc1cc(-c2ncccc2-c2ccc3ncnc(N)c3c2)c(F)cc1F [compound 502, 6-(2-(2,4-Difluoro-5-methoxyphenyl)pyridin-3-yl)quinazolin-4-amine]
4960 nM | Nc1ncnc2ccc(-c3cccnc3-c3cc(F)ccc3Cl)cc12 [compound 504, 6-(2-(2-Chloro-5-fluorophenyl)pyridin-3-yl)quinazolin-4-amine]
1830 nM | Fc1ccc(-c2ncccc2-c2ccc3ncncc3c2)cc1Cl [compound 506, 6-(2-(3-Chloro-4-fluorophenyl)pyridin-3-yl)quinazoline]
3360 nM | Fc1ccc(-c2ncccc2-c2ccc3ncnc(C4CC4)c3c2)cc1Cl [compound 507, 6-(2-(3-Chloro-4-fluorophenyl)pyridin-3-yl)-4-cyclopropylquinazoline]
1170 nM | Cc1cccc(-c2cccnc2-c2ccc3[nH]ncc3c2)n1 [compound 517, 5-(6-Methyl-[2,3′-bipyridin]-2′-yl)-1H-indazole]
175 nM | Cc1cccc(-c2ncccc2-c2ccc3ncc(C)n3c2)c1 [compound 528, 3-Methyl-6-(2-(m-Tolyl)pyridin-3-yl)imidazo[1,2-a]pyridine]
6120 nM | Cc1cn2cc(-c3cccnc3-c3cccc(C4CC4)c3)ccc2n1 [compound 533, 6-(2-(3-Cyclopropylphenyl)pyridin-3-yl)-2-methylimidazo[1,2-a]pyridine]
404 nM | Cc1cccc(-c2ncccc2-c2ccc3ncccc3n2)c1 [compound 536, 2-(2-(m-Tolyl)pyridin-3-yl)-1,5-naphthyridine]
699 nM | Cc1cc(-c2ncccc2-c2ccc3nccnc3c2)ccc1F [compound 539, 6-(2-(4-Fluoro-3-methylphenyl)pyridin-3-yl)quinoxaline]
426 nM | Cc1cccc(-c2ncccc2-c2ccc3nccnc3c2)c1 [compound 540, 6-(2-(m-Tolyl)pyridin-3-yl)quinoxaline]
1720 nM | FC(F)(F)c1cccc(-c2ncccc2-c2ccc3nccnc3c2)c1 [compound 542, 6-(2-(3-(Trifluoromethyl)phenyl)pyridin-3-yl)quinoxaline]
5010 nM | c1cc(-c2ncccc2-c2ccc3nccc(N4CCOCC4)c3c2)cc(C2CC2)c1 [compound 549, 4-(6-(2-(3-Cyclopropylphenyl)pyridin-3-yl)quinolin-4-yl)morpholine]
4880 nM | Cc1cc(-c2ncccc2-c2ccc3ncc(N(C)C)n3c2)ccc1F [compound 551, 6-(2-(4-Fluoro-3-methylphenyl)pyridin-3-yl)-N,N-dimethylimidazo[1,2-a]pyridin-3-amine]
4680 nM | CN(C)c1cnc2ccc(-c3cccnc3-c3cccc(C(F)(F)F)c3)cn12 [compound 554, N,N-Dimethyl-6-(2-(3-(trifluoromethyl)phenyl)pyridin-3-yl)imidazo[1,2-a]pyridin-3-amine]
156 nM | Cc1cc(-c2ncccc2-c2ccc3ncc(C(F)(F)F)n3c2)ccc1F [compound 555, 6-(2-(4-Fluoro-3-methylphenyl)pyridin-3-yl)-3-(trifluoromethyl)imidazo[1,2-a]pyridine]
188 nM | Cc1cccc(-c2ncccc2-c2ccc3ncc(C#N)n3c2)c1 [compound 558, 6-(2-(m-Tolyl)pyridin-3-yl)imidazo[1,2-a]pyridine-3-carbonitrile]
11000 nM | Cc1cc(-c2ncccc2-c2ccc3ncc(N4CCCC4)n3c2)ccc1F [compound 561, 6-(2-(4-Fluoro-3-methylphenyl)pyridin-3-yl)-3-(pyrrolidin-1-yl)imidazo[1,2-a]pyridine]
5200 nM | c1cc(-c2ncccc2-c2ccc3ncc(N4CCCC4)n3c2)cc(C2CC2)c1 [compound 563, 6-(2-(3-Cyclopropylphenyl)pyridin-3-yl)-3-(pyrrolidin-1-yl)imidazo[1,2-a]pyridine]
406 nM | Cc1cc(-c2ncccc2-c2ccc3ncc(CO)n3c2)ccc1F [compound 565, (6-(2-(4-Fluoro-3-methylphenyl)pyridin-3-yl)imidazo[1,2-a]pyridin-3-yl)methanol]
674 nM | OCc1cnc2ccc(-c3cccnc3-c3cccc(C(F)(F)F)c3)cn12 [compound 568, (6-(2-(3-(Trifluoromethyl)phenyl)pyridin-3-yl)imidazo[1,2-a]pyridin-3-yl)methanol]

Second part, the compound before the results:

Structure (SMILES) | IC50
Nc1ncnc2ccc(-c3cccnc3-c3ccccc3Cl)cc12 [compound 497, 6-(2-(2-Chlorophenyl)pyridin-3-yl)quinazolin-4-amine] | 9220 nM
Nc1ncnc2ccc(-c3cccnc3-c3cc(Cl)ccc3Cl)cc12 [compound 501, 6-(2-(2,5-Dichlorophenyl)pyridin-3-yl)quinazolin-4-amine] | 355 nM
Nc1ncnc2ccc(-c3cccnc3-c3cccc(F)c3Cl)cc12 [compound 503, 6-(2-(2-Chloro-3-fluorophenyl)pyridin-3-yl)quinazolin-4-amine] | 4820 nM
Cc1cc(-c2ncc(NCc3ccncc3)cc2-c2ccc3ncsc3c2)ccc1F [compound 509, 5-(Benzo[d]thiazol-6-yl)-6-(4-fluoro-3-methylphenyl)-N-(pyridin-4-ylmethyl)pyridin-3-amine] | 265 nM
Cc1cccc(-c2cccnc2-c2ccc3nc[nH]c3c2)n1 [compound 521, 6-(6-Methyl-[2,3′-bipyridin]-2′-yl)-1H-benzo[d]imidazole] | 8060 nM
Cc1cc(-c2ncccc2-c2ccc3ncc(C)n3c2)ccc1F [compound 527, 6-(2-(4-Fluoro-3-methylphenyl)pyridin-3-yl)-3-methylimidazo[1,2-a]pyridine] | 137 nM
Cc1cnc2ccc(-c3cccnc3-c3cccc(C4CC4)c3)cn12 [compound 529, 6-(2-(3-Cyclopropylphenyl)pyridin-3-yl)-3-methylimidazo[1,2-a]pyridine] | 323 nM
Cc1cnc2ccc(-c3cccnc3-c3cccc(C(F)(F)F)c3)cn12 [compound 530, 3-Methyl-6-(2-(3-(trifluoromethyl)phenyl)pyridin-3-yl)imidazo[1,2-a]pyridine] | 625 nM
Cc1cn2cc(-c3cccnc3-c3ccc(F)c(C)c3)ccc2n1 [compound 531, 6-(2-(4-Fluoro-3-methylphenyl)pyridin-3-yl)-2-methylimidazo[1,2-a]pyridine] | 11200 nM
Cc1cccc(-c2ncccc2-c2ccc3nc(C)cn3c2)c1 [compound 532, 2-Methyl-6-(2-(m-tolyl)pyridin-3-yl)imidazo[1,2-a]pyridine] | 17700 nM
Cc1cn2cc(-c3cccnc3-c3cccc(C(F)(F)F)c3)ccc2n1 [compound 534] | 18000 nM
Cc1cc(-c2ncccc2-c2ccc3ncccc3n2)ccc1F [compound 535, 2-(2-(4-Fluoro-3-methylphenyl)pyridin-3-yl)-1,5-naphthyridine] | 504 nM
c1cc(-c2ncccc2-c2ccc3ncccc3n2)cc(C2CC2)c1 [compound 537, 2-(2-(3-Cyclopropylphenyl)pyridin-3-yl)-1,5-naphthyridine] | 111 nM
FC(F)(F)c1cccc(-c2ncccc2-c2ccc3ncccc3n2)c1 [compound 538, 2-(2-(3-(Trifluoromethyl)phenyl)pyridin-3-yl)-1,5-naphthyridine] | 474 nM
c1cc(-c2ncccc2-c2ccc3nccnc3c2)cc(C2CC2)c1 [compound 541, 6-(2-(3-Cyclopropylphenyl)pyridin-3-yl)quinoxaline] | 250 nM
Cc1cccc(-c2ncccc2-c2ccc3nccc(N4CCOCC4)c3c2)c1 [compound 548, 4-(6-(2-(m-Tolyl)pyridin-3-yl)quinolin-4-yl)morpholine] | 16400 nM
Cc1cccc(-c2ncccc2-c2ccc3ncc(N(C)C)n3c2)c1 [compound 552, N,N-Dimethyl-6-(2-(m-tolyl)pyridin-3-yl)imidazo[1,2-a]pyridin-3-amine] | 4060 nM
CN(C)c1cnc2ccc(-c3cccnc3-c3cccc(C4CC4)c3)cn12 [compound 553, 6-(2-(3-Cyclopropylphenyl)pyridin-3-yl)-N,N-dimethylimidazo[1,2-a]pyridin-3-amine] | 3240 nM
FC(F)(F)c1cnc2ccc(-c3cccnc3-c3cccc(C4CC4)c3)cn12 [compound 556, 6-(2-(3-Cyclopropylphenyl)pyridin-3-yl)-3-(trifluoromethyl)imidazo[1,2-a]pyridine] | 363 nM
Cc1cc(-c2ncccc2-c2ccc3ncc(C#N)n3c2)ccc1F [compound 557, 6-(2-(4-Fluoro-3-methylphenyl)pyridin-3-yl)imidazo[1,2-a]pyridine-3-carbonitrile] | 439 nM
N#Cc1cnc2ccc(-c3cccnc3-c3cccc(C4CC4)c3)cn12 [compound 559, 6-(2-(3-Cyclopropylphenyl)pyridin-3-yl)imidazo[1,2-a]pyridine-3-carbonitrile] | 162 nM
N#Cc1cnc2ccc(-c3cccnc3-c3cccc(C(F)(F)F)c3)cn12 [compound 560, 6-(2-(3-(Trifluoromethyl)phenyl)pyridin-3-yl)imidazo[1,2-a]pyridine-3-carbonitrile] | 2480 nM
Cc1cccc(-c2ncccc2-c2ccc3ncc(N4CCCC4)n3c2)c1 [compound 562, 3-(Pyrrolidin-1-yl)-6-(2-(m-tolyl)pyridin-3-yl)imidazo[1,2-a]pyridine] | 9780 nM
FC(F)(F)c1cccc(-c2ncccc2-c2ccc3ncc(N4CCCC4)n3c2)c1 [compound 564, 3-(Pyrrolidin-1-yl)-6-(2-(3-(trifluoromethyl)phenyl)pyridin-3-yl)imidazo[1,2-a]pyridine] | 18400 nM
Cc1cccc(-c2ncccc2-c2ccc3ncc(CO)n3c2)c1 [compound 566, (6-(2-(m-Tolyl)pyridin-3-yl)imidazo[1,2-a]pyridin-3-yl)methanol] | 342 nM
OCc1cnc2ccc(-c3cccnc3-c3cccc(C4CC4)c3)cn12 [compound 567, (6-(2-(3-Cyclopropylphenyl)pyridin-3-yl)imidazo[1,2-a]pyridin-3-yl)methanol] | 225 nM
